Source: patent US20260199297A1, “FERROPTOSIS INDUCERS TO TREAT CANCER” (The University of Toledo, priority 2022, published 2026)
Read-outs that look alike come from different tables or passages of the source.

Assays:
NCI-H522 cells [1] = experiment: Cytotoxicity (methylene blue cell viability), NCI-H522; format: cell-based, human; settings: Homo sapiens
Description: (§1) Having synthesized the CETZOLE analogs, their cytotoxic activity was evaluated. […] NCI-H522 RV-GFP is the corresponding control with RV-GFP tag, but without SLC7A11 overexpression. […] The cytotoxicity screening was conducted as described previously.
(§2) Cell lines were cultured in a humidified atmosphere containing 10% CO2 in Dulbecco's modified Eagle's medium (Mediatech, Inc) supplemented with 10% fetal bovine serum (Atlanta Biologicals). Cell types used MEFs, HT1080 (human fibrosarcoma cells), NARF2 (osteosarcoma), WI-38 (human embryonic lung fibroblast), MDA MB 231 (breast cancer), HCT-116 (human colon), and NCI-H522 (Non-Small Cell Lung Cancer) cell lines. To determine viability throughout these examples, 5,000 cells were plated per well of a 96-well plate and drugs were added 1 day later. Cells were stained 1 to 3 days later with a saturated solution of methylene blue in 50% ethanol. Plates were rinsed and retained dye was quantified by spectrophotometry. Absorbance was normalized to DMSO and given as 1 or 100% for cell viability. Results are representative of at least two independent experiments. Statistical significance was assessed using the Student's t test. All commercially available chemicals were obtained from Cayman Chemicals unless otherwise noted.

[2] = system: NCI-H522 GFP-SLC7A11 #8 cells; experiment: Cytotoxicity (methylene blue cell viability), NCI-H522 clone overexpressing GFP-SLC7A11; format: cell-based, human; settings: Homo sapiens; Table 1; NCI-H522 clone overexpressing GFP-tagged SLC7A11; read-out: Half maximal inhibitory concentration (IC50), NCI-H522 GFP-SCL7A11 #8
Description: as §1, §2

NCI-H522 RV-GFP cells = experiment: Cytotoxicity (methylene blue cell viability), NCI-H522 RV-GFP control clone; format: cell-based, human; settings: Homo sapiens, NCI-H522; Table 1; control clone with RV-GFP tag; read-out: Half maximal inhibitory concentration (IC50), NCI-H522 Rv-GFP
Description: as §1, §2

HT-1080 cells = experiment: Cytotoxicity (methylene blue cell viability), HT-1080; format: cell-based, human; settings: Homo sapiens
Description: as §1, §2

NARF2 cells = experiment: Cytotoxicity (methylene blue cell viability), NARF2; format: cell-based, human; settings: Homo sapiens; Table 1; NARF2 osteosarcoma cells; read-out: Half maximal inhibitory concentration (IC50), NARF2
Description: as §1, §2

MDA-MB-231 cells = experiment: Cytotoxicity (methylene blue cell viability), MDA-MB-231; format: cell-based; settings: Homo sapiens
Description: as §1, §2

WI38 cells = experiment: Cytotoxicity on normal cell line WI38; format: cell-based, human; settings: Homo sapiens, WI-38; Table 2; lung tissue fibroblast; read-out: Half maximal inhibitory concentration (IC50), Normal Cell Line WI38
Description: (§3) To determine cytotoxicity at a therapeutically more relevant concentration, cells were treated at a single concentration of […] (FIG. 12).
as §2

[3] = system: MEFs (Mouse Embryonic Fibroblasts); experiment: Cytotoxicity on normal cell line MEFs; format: cell-based; settings: Fibroblast; Table 2; Mouse Embryonic Fibroblasts; read-out: Half maximal inhibitory concentration (IC50), Normal Cell Line Mefs
Description: as §3, §2

NCI-H522 cells [4] = format: cell-based; settings: human, 3 days
Description: FIGS. 10A-10C: Results of live cell imaging.
FIG. 16: Evaluation of ferroptosis-inducing character of CETZOLE probes. A three-day ferroptosis rescue assay of NCI-H522 cells treated with DMSO, 1, RSL3, and CETZOLE analogs, and liproxstatin-1 co-treatment, showing significant ferroptosis inducing probes.
The live cell montage images in FIG. 10A show notable ferroptosis-related morphological changes, such as membrane breakage and floating cell debris in the medium. The NCI-H522 cell viability improved overall when cells were co-treated with the radical scavenger liproxstatin-1 (FIG. 10C). […] To confirm this, flow-cytometry was performed to quantify lipid peroxidation using redox-active BODIPY-C11 (FIGS. 11A-11E).
Overall, CETZOLE probes do induce radical-mediated cell death and are therefore indeed ferroptotic agents.
as §2, with “noted. Compound CETZOLE 1 and the analogs were synthesized as highlighted.” for “noted.”

[5] = system: NCI-H522 and HT-1080 cancer cell lines, WI38 and MEFs normal cell lines; experiment: Selective cytotoxicity assay at a single concentration; format: cell-based; set-up: dose or concentration left out as unconfirmed; settings: NCI-H522, HT-1080, WI38, MEFs
Description: Overall, WI38 cells were the most tolerant to the treatment, whereas MEF cells were partially tolerant and relatively less sensitive than both NCI-H522 and HT-1080 cells. To determine cytotoxicity at a therapeutically more relevant concentration, cells were treated at a single concentration of […] (FIG. 12).
as §2, with “noted. Compound CETZOLE 1 and the analogs were synthesized as highlighted.” for “noted.”

[6] = system: 60 human cancer cell lines; experiment: NCI 60 human cancer cell line assay, single dose; format: cell-based; settings: single dose of 10 μM, 60 cell lines
Description: (§4) The cell lines used in this assay belonged to leukemia, non-small-cell lung cancer, colon cancer, CNS cancer, melanoma, ovarian cancer, renal cancer, prostate cancer, and breast cancer. The compounds were first tested at a single dose of 10 μM.

[7] = system: renal cancer cell line UO-31; experiment: NCI 60 cell line assay, single dose, UO-31; format: cell-based, human; settings: single dose of 10 μM
Description: (§5) The cell lines used in this assay belonged to leukemia, non-small-cell lung cancer, colon cancer, CNS cancer, melanoma, ovarian cancer, renal cancer, prostate cancer, and breast cancer. The compounds were first tested at a single dose of 10 μM. Analogue 20a was the most cytotoxic with a mean percentage growth of 1.24 (FIG. 13A). […] Analogs 20a and 23 were further tested in the NCI dose response assay ([…]).

[8] = system: renal cancer cell line 786-0; experiment: NCI 60 cell line assay, single dose, 786-0; format: cell-based, human; settings: single dose of 10 μM
Description: as §5

[9] = system: ovarian cancer cell line IGROV1; experiment: NCI 60 cell line assay, single dose, IGROV1; format: cell-based, human; settings: single dose of 10 μM
Description: as §5

[10] = system: leukemia, ovarian cancer, and renal cancer cell lines; experiment: NCI dose response assay; format: cell-based, human
Description: as §4

[11] = system: NCI-H522, HT-1080, and MDA-MB-231 cells; experiment: Cytotoxicity screening of CETZOLE probes and negative controls; format: cell-based; settings: 20 μM maximum concentration
Description: The benzophenone bromo-alkane 28e was obtained by selective EDC coupling of diaminobenzophenone 31 with 4-pentynoic acid 32 to obtain amide 33, followed by dropwise addition of bromoacetyl bromide 30 to a solution of 33 and TEA in DCM. To obtain intermediate 28f, Boc-protection of methyl 2-amino-5-bromobenzoate 34 to get 35, followed by installing an azide group at the para position employing Markiewicz and Helquist conditions, gave the azide 36. This was subjected to saponification followed by EDC coupling with propargyl amine 38 to obtain 39. Boc deprotection to get 40 was followed by acylation of the resulting amine with bromoacetyl bromide 30 afforded the bromo alkane 28f. They were screened for activity on NCI-H522, HT-1080, and MDA-MB-231 cells prior to using in target identification.
A similar cytotoxicity trend was observed on HT-1080 and MDA-MB-231 cancer cell lines.
Cell lines were cultured in a humidified atmosphere containing 10% CO2 in Dulbecco's modified Eagle's medium (Mediatech, Inc) supplemented with 10% fetal bovine serum (Atlanta Biologicals). […] Plates were rinsed and retained dye was quantified by spectrophotometry. Absorbance was normalized to DMSO and given as 1 or 100% for cell viability. […] Statistical significance was assessed using the Student's t test. […]

HeLa cells = experiment: Cellular localization of probes by bio-imaging; format: cell-based; settings: 37° C. one hour, TAMRA-PEG-3-azide click
Description: FIGS. 17A-17E: Cellular localization of CETZOLE probes. […] Cells were incubated with the respective agent, permeabilized, subjected to TAMRA-PEG3 azide ligation, and viewed under microscope.
The thiazole alkyne pharmacophore undergoes thiol addition. Therefore, PPd is believed to interact covalently with the target protein, and the propargyl alkyne serves as a clickable bio-orthogonal handle for attaching reporter tags. On the other hand, PPe has a photoactivatable benzophenone moiety that covalently binds to the target protein(s) upon photo irradiation. Bio-imaging experiments were conducted to determine the spatial localization of CETZOLE probes in HeLa cells using fluorescent reporter tags. For this, HeLa cells were incubated with probe PPd and the negative control NPd (FIG. 17A) at 37° C. for one-hour. The cells were washed with cold PBS, fixed with formaldehyde (5%), permeabilized with triton-X, and subjected to bioorthogonal click reaction with TAMRA-PEG-3-azide in the presence of tris-hydroxypropyltriazolylmethylanine (THPTA), copper (II) sulfate (CuSO4), and sodium ascorbate. After multiple washings, cells were transferred on to a microscope viewing slide, stained with Hoechst dye, and observed under Olympus microscope (FIGS. 17C-17E).

NCI-H522 cells [12] = experiment: Flow cytometry BODIPY-C11 lipid ROS measurement; format: cell-based, human
Description: The total cell counts are represented by the area under the graph.
NCI-H522 cells were seeded at 1.5×10^5 cells per 9-cm plate. The next media was replaced with fresh media before treated with drugs along with BODIPY581/591-C11 dye (0.5 μM) (Thermo Fisher). […], and resuspended in 2% FBS containing 1×PBS. Cells were analyzed in FITC channel using a BD LSR Fortessa FAC Scanner. Twenty thousand events per condition were analyzed from three independent samples. The experiments were performed twice, each time with triplicate samples (n=6). Collected data were processed with FlowJo v10 software. Lipid ROS measurement in TR9-7 or NARF2 cells was performed similarly at the indicated conditions as mentioned in the respective figure legends. Where appropriate, dead cells were excluded by gating. When gates were applied, they were identical across samples within an experiment.

[13] = NCI-H522, Table 2, read-out: Half maximal inhibitory concentration (IC50), Cancer Cell Line NCI-H522
[14] = Table 1, NCI-H522 cancer cell line, read-out: Half maximal inhibitory concentration (IC50), NCI-H522
[15] = HT-1080, Table 2, read-out: Half maximal inhibitory concentration (IC50), Cancer Cell Line HT1080
[16] = Table 1, HT-1080 fibrosarcoma cell line, read-out: Half maximal inhibitory concentration (IC50), HT-1080
[17] = Table 1, MDA-MB-231 breast cancer cell line, read-out: Half maximal inhibitory concentration (IC50), MDA-MB-231
[18] = NCI-H522, Table 3, probes and negative controls, read-out: IC50, NCI-H522
[19] = HT-1080, Table 3, probes and negative controls, read-out: IC50, HT-1080
[20] = MDA-MB-231, Table 3, probes and negative controls, read-out: IC50, MDA-MB-231

SMILES	IC50 (NCI-H522 cells [1]; [13]) [µM]	IC50 (NCI-H522 cells [1]; [14]) [µM]	IC50 [2] [µM]	IC50 (NCI-H522 RV-GFP cells) [µM]	IC50 (HT-1080 cells; [15]) [µM]	IC50 (HT-1080 cells; [16]) [µM]	IC50 (NARF2 cells) [µM]	IC50 (MDA-MB-231 cells; [17]) [µM]	IC50 (WI38 cells) [µM]	IC50 [3] [µM]	cell viability on liproxstatin-1 co-treatment (rescue) (NCI-H522 cells [4]) [%]	cell death at a single concentration [5]	mean percentage growth [6]	IC50 (NCI-H522 cells [1]; [18]) [µM]	IC50 (HT-1080 cells; [19]) [µM]	IC50 (MDA-MB-231 cells; [20]) [µM]	also measured
C#Cc1nc(C2=C(C)C(OC(C)=O)/C(=N/OC(C)=O)C2)cs1 (centres unmarked) [compound 20a, (E)-5-(Acetoxyimino)-3-(2-ethynylthiazol-4-yl)-2-methylcyclopent-2-en-1-yl acetate]	0.17 ± 0.08	0.17 ± 0.08	1.59 ± 0.49	0.26 ± 0.11	0.14 ± 0.06	0.14 ± 0.06	7.26 ± 2.01	0.23 ± 0.02	1.53 ± 0.36	0.12 ± 0.06	60	killed only the cancer cell lines NCI-H522 and HT-1080	1.24				percentage growth, UO-31 [7]: −95%; percentage growth, 786-0 [8]: −95%; percentage growth, IGROV1 [9]: −95%; sensitivity of cell lines in dose response assay [10]: particularly sensitive
C#Cc1nc(C2=C(C)C(=O)/C(=N/OCC(=O)Nc3ccc4oc(=O)c(C)cc4c3)C2)cs1 [PPc, (E)-2-(((4-(2-Ethynylthiazol-4-yl)-3-methyl-2-oxocyclopent-3-en-1-ylidene)amino)oxy)-N-(3-methyl-2-oxo-2H-chromen-6-yl)acetamide]														> 20	> 20	> 20	cytotoxicity at maximum concentration tested [11]: did not induce any cytotoxicity
C#CCO/N=C1\CC(c2csc(C#C)n2)=C(C)C1O (centres unmarked) [PPd, 4-(2-Ethynylthiazol-4-yl)-2-hydroxy-3-methylcyclopent-3-en-1-one 0-prop-2-yn-1-yl oxime]											75			2.31 ± 1.08	1.17 ± 0.12	2.7 ± 0.72	spatial localization of probe (HeLa cells): intense intracellular aggregation of probe in the nucleus and vacuoles
C#Cc1nc(C2=C(C)/C(=N/OCc3ccccc3)CC2)cs1 [compound 23, (E)-3-(2-Ethynylthiazol-4-yl)-2-methylcyclopent-2-en-1-one O-benzyl oxime]	1.36 ± 0.11	1.36 ± 0.11	2.41 ± 1.16	2.54 ± 0.44	0.81 ± 0.14	0.81 ± 0.14	19.3 ± 5.9	4.17 ± 0.39	2.51 ± 0.81	1.09 ± 0.46	85	did not induce cell death	27.24				speed of cell death (area under graph) (NCI-H522 cells [12]; NCI-H522): induced slower cell death; lipid peroxidation compared to DMSO (NCI-H522 cells [12]; NCI-H522, BODIPY-C11, 3 hours): induced lipid peroxidation
